Several values for one entry are separate records, joined by “and”; a condition that tells them apart may be missing. Equal values may be shown once. Blank lines part the entries; values can stand above or below the compound they belong to.
How the values were obtained:
Format in all cases: binding, Petunia hybrida
PhnsLTP3 = assay: Activity of PhnsLTP3 with TNS (TNS fluorescence); details: for TNS fluorescence with boiled PhnsLTP3: three biological replicates
Method: (§1) To directly test whether PhnsLTP3 can bind petunia VOCs, in vitro displacement assays were performed using the recombinant PhnsLTP3 protein and fluorescent 6-(p-toluidino)−2-naphthalenesulfonate (TNS) in the presence of petunia volatiles. […] TNS fluoresces strongly when bound to the hydrophobic regions of the protein, while it has weak fluorescence in an aqueous solution. […] Potential ligands of the protein will displace the bound TNS from the hydrophobic protein pocket into the aqueous environment leading to a decrease in the fluorescent signal, which was used to calculate the dissociation constant of the protein with ligand. […] To test whether PhnsLTP2 and PhnsLTP3 can bind other VOCs, we assayed the terpenoids: limonene, linalool, and nerolidol, as well as methyl jasmonate in TNS displacement assays. Both PhnsLTP2 and PhnsLTP3 were able to bind tested volatile compounds with Kds in the micromolar range (Supplementary Figs. 16 and 17).
(§2) The fluorescence-based-binding assays were performed largely according to previous publications[12],[52] with slight modifications. […] All mixtures were excited at 320 nm, and the fluorescence emission at 437 nm was recorded using a plate reader (SpectraMax iD3, Molecular Devices) at equilibrium after 5 min of incubation at 25 °C giving the background fluorescence Fmix0 and FTNS0 . The tested ligands dissolved in 2 µL DMSO were then added to the mixtures and TNS only to different final concentrations, and the fluorescence emissions were recorded at equilibrium after 5 min of incubation ( Fmixligand and FTNSligand ). To account for the change in the TNS fluorescence intensity upon adding the solvent DMSO, the background fluorescence of TNS ( FTNSsol ) as well as each PhnsLTP with TNS ( Fmixsol ) were measured. The ratios RTNS=FTNSsol/FTNS0 and Rmix=Fmixsol/Fmix0 were calculated to calibrate the fluorescence. Three measurements were taken for each concentration. The results were expressed as a percentage of fluorescence quenched Fmixligand/Rmix−FTNSligand/RTNS/Fmix0−FTNS0×100% . The corresponding dissociation constants kd were obtained by non-linear regression fitting of the binding kinetics to the Michaelis-Menten equation.
Supplementary Figure 15 | Protein purification and characterization of PhnsLTP1, PhnsLTP2, and PhnsLTP3 activity with TNS. a, SDS-PAGE analysis of PhnsLTP1 after affinity chromatography on Ni-NTA agarose (lane A) and subsequent cation exchange chromatography on HiTrapTM SP HP-Cytiva (lane B). 5.3 µg protein were loaded per each lane .b, SDS-PAGE analysis of 8.75 µg of purified PhnsLTP 1, PhnsLTP 2 , and PhnsLTP 3. […] P values were determined by one-way ANOVA with the Tukey’s multiple comparisons test relative to TNS background (black) and boiled PhnsLTP3 in the presence of 200 mM DTT (blue). […]

PhnsLTP2 = assay: Activity of PhnsLTP2 with TNS (TNS fluorescence); details: three biological replicates (c2-c4); listed as PhnsLTP2+TNS
Method: (§3) To directly test whether PhnsLTP3 can bind petunia VOCs, in vitro displacement assays were performed using the recombinant PhnsLTP3 protein and fluorescent 6-(p-toluidino)−2-naphthalenesulfonate (TNS) in the presence of petunia volatiles. […] TNS fluoresces strongly when bound to the hydrophobic regions of the protein, while it has weak fluorescence in an aqueous solution. […] Potential ligands of the protein will displace the bound TNS from the hydrophobic protein pocket into the aqueous environment leading to a decrease in the fluorescent signal, which was used to calculate the dissociation constant of the protein with ligand. […]
(§4) The fluorescence-based-binding assays were performed largely according to previous publications[12],[52] with slight modifications. […] All mixtures were excited at 320 nm, and the fluorescence emission at 437 nm was recorded using a plate reader (SpectraMax iD3, Molecular Devices) at equilibrium after 5 min of incubation at 25 °C giving the background fluorescence Fmix0 and FTNS0 . The tested ligands dissolved in 2 µL DMSO were then added to the mixtures and TNS only to different final concentrations, and the fluorescence emissions were recorded at equilibrium after 5 min of incubation ( Fmixligand and FTNSligand ). […] The ratios RTNS=FTNSsol/FTNS0 and Rmix=Fmixsol/Fmix0 were calculated to calibrate the fluorescence. […]

PhnsLTP1 = assay: Activity of PhnsLTP1 with TNS (TNS fluorescence)
Method: as §3, §4

recombinant PhnsLTP2 = assay: TNS displacement assay with recombinant PhnsLTP2; details: for Kd: PhnsLTP2 1 µM, TNS 3 µM, non-linear fitting to Michaelis-Menten equation, means ± S.E., n = 3, read-out: dissociation constant Kd (PhnsLTP2); for Percentage fluorescence quenched (%): biological replicates 1-3, Supplementary Figure 17
Method: as §1, §2
Supplementary Figure 16 | Binding kinetics of recombinant PhnsLTP2 with phenylpropanoids/benzenoids by petunia flowers, terpenoids and methyl jasmonate.
TNS displacement assays were performed at fixed concentrations of PhnsLTP2 (1 µM) and TNS (3 µM) and the fluorescence was measured before and after the tested compounds were added at various concentrations. The results are expressed as percentage of fluorescence quenched with respect to the concentration of added compound. The binding curves were obtained by non-linear fitting to the Michaelis-Menten equation (solid line in the graph) and the dissociation constants Kd [µM] were obtained. Phenylacetaldehyde, eugenol, and […]
corresponding binding curves. All data are means ±S.E. (n = 3 biological replicates).

recombinant PhnsLTP3 = assay: TNS displacement assay with recombinant PhnsLTP3; details: PhnsLTP3 1 µM, TNS 3 µM; for Kd: non-linear fitting to Michaelis-Menten equation (one binding site), means ± S.E., n = 3, read-out: dissociation constant Kd (PhnsLTP3); for Percentage fluorescence quenched: three biological replicates (c2-c4)
Method: as §1
Fig. 5 Binding kinetics of recombinant PhnsLTP3 with VOCs emitted by petunia flowers. TNS displacement assays were performed at fixed concentrations of PhnsLTP3 (1 µM) and TNS (3 µM) and the fluorescence was measured before and after the tested compounds were added at various concentrations. The results are expressed as percentage of fluorescence quenched with respect to the concentration of added compound. The binding curves were obtained by non-linear fitting to the Michaelis-Menten equation (solid line in the graph) and the dissociation constants Kd [µM] were obtained. […] All data are means ± S.E. (n = 3 biological replicates).
as §2
The binding curves of PhnsLTP3 with various VOC compounds were obtained by non-linear fitting to the one-binding-site (Eq. (1)) and two-binding-site (Eq. (2)) models. The equations assume that the ligand binds to multiple independent binding sites and that the binding to each site follows the law of mass action:1 %offluorescencequenched=Bmax×[TNS]/kd+[TNS] 2 %offluorescencequenched=Bmax1×[TNS]/kd1+[TNS]+Bmax2×[TNS]/kd2+[TNS] […]
PhnsL TP3 (1 µ M)and TNS (3 µ M)and the fluorescence was measured before and after the tested compounds were added at various concentrations. The results are expressed as percentage of fluorescence quenched with respect to the concentration of added compound.
The binding curves were obtained by non-linear fitting to the Michaelis-Menten equation (solid line in the graph) and the dissociation constants Kd [µ M]were obtained. All data are means ±S.E. (n = 3 biological replicates).
Supplementary Figure 25 | Analysis of number of binding sites of PhnsLTP3.
TNS displacement assay was performed at fixed concentrations of PhnsLTP3 (1 µM) and TNS (3 µM) and the fluorescence was measured before and after methyl […]

Structure (SMILES): Cc1ccc(Nc2ccc3cc(S(=O)(=O)O)ccc3c2)cc1 [TNS, 6-(p-toluidino)−2-naphthalenesulfonate]
- TNS fluorescence with boiled PhnsLTP3 (PhnsLTP3; boiled PhnsLTP3 in the presence of 200 mM DTT (negative control), listed as Boiled PhnsLTP3+TNS (200 mM DTT)): 508777 A.U. and 481415 A.U. and 534530 A.U.
- TNS fluorescence with boiled PhnsLTP3 (PhnsLTP3; boiled PhnsLTP3 in the presence of 400 mM DTT (negative control), listed as Boiled PhnsLTP3+TNS (400 mM DTT)): 531842 A.U. and 534148 A.U. and 522476 A.U.
- TNS fluorescence in the presence of PhnsLTP3 (in words) (PhnsLTP3; relative to buffer and denatured, dithiothreitol-reduced PhnsLTP3 controls): intense TNS fluorescence
- TNS fluorescence with PhnsLTP3 (PhnsLTP3; three biological replicates (c2-c4), listed as PhnsLTP3+TNS): 1399068 A.U. and 1386931 A.U. and 1338392 A.U.
- TNS fluorescence with PhnsLTP2 (PhnsLTP2): 1288048 A.U. and 1292857 A.U. and 1304928 A.U.
- TNS-binding activity of PhnsLTP1 (in words) (PhnsLTP1): did not display TNS-binding activity
- TNS fluorescence with PhnsLTP1 (PhnsLTP1; three biological replicates (c2-c4), listed as PhnsLTP1+TNS): 198735 A.U. and 195455 A.U. and 188087 A.U.

Structure (SMILES): CC/C=C\CC1C(=O)CCC1CC(=O)OC (stereo not drawn) [Methyl jasmonate]
- Kd (recombinant PhnsLTP2): 184 ± 96.5 µM
- Percentage fluorescence quenched (%) (recombinant PhnsLTP2; VOC concentration 1500 µM): 75.75% and 76.43% and 72.92%
- Kd (recombinant PhnsLTP3): 253 ± 112 µM

Structure (SMILES): OCc1ccccc1 [Benzyl alcohol]
- Kd (recombinant PhnsLTP2): 399 ± 261 µM
- Kd (recombinant PhnsLTP3): 208 ± 74.2 µM
- Percentage fluorescence quenched (recombinant PhnsLTP3; VOC concentration 30 µM): 3.06% and 3.64% and 9.84%
- Percentage fluorescence quenched (recombinant PhnsLTP3; VOC concentration 300 µM): 23.75% and 24.96% and 17.77%
- Percentage fluorescence quenched (recombinant PhnsLTP3; VOC concentration 1500 µM): 32.13% and 29.61% and 29.01%
- Percentage fluorescence quenched (recombinant PhnsLTP3; VOC concentration 3000 µM): 34.41% and 38.89% and 34.26%

Now from value to compound:

- Kd (recombinant PhnsLTP2): 126 ± 43.6 µM
- Kd (recombinant PhnsLTP3): 26.7 ± 14.2 µM
Structure (SMILES): C=C(C)[C@H]1CC=C(C)CC1 [Limonene]

- Kd (recombinant PhnsLTP2): 21.4 ± 4.5 µM
- Percentage fluorescence quenched (%) (recombinant PhnsLTP2; VOC concentration 30 µM): 79.85% and 81.10% and 78.83%
- Kd (recombinant PhnsLTP3): 2.4 ± 0.4 µM
Structure (SMILES): C=CC(C)(O)CCC=C(C)CCC=C(C)C (mixture of isomers) [Nerolidol]

Source: publication PMC9852552, “Emission of floral volatiles is facilitated by cell-wall non-specific lipid transfer proteins” (Nature Communications, 2023)
